Results on ten compounds are retold here after US8143293B2, “Kinase inhibitors useful for the treatment of myleoprolific diseases and other proliferative diseases” (Deciphera Pharmaceuticals, LLC, priority 2007, dated 2012).

Assay [1] concerns the target T1, Abl kinase (SEQ ID NO: 1) (Homo sapiens, UniProt P00519).
T1 construct: purchased deCode Genetics
T1 sequence (P00519 with tags, fused parts or gaps): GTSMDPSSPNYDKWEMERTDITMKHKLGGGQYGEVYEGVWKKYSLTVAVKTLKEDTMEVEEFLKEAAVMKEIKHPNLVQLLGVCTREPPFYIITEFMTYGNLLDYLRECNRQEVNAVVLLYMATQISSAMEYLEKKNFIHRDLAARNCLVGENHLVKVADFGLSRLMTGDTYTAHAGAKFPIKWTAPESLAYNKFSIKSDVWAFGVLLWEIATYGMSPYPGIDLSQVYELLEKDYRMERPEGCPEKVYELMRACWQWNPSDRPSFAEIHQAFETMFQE
Kind of assay: Abl kinase (SEQ ID NO:1) assay, pyruvate kinase/lactate dehydrogenase coupled. Particulars: 2 h preincubation, ATP 500 μM; read-out: Biochemical IC50, Abl Enzyme Assay. As to the method:
Abl Kinase (SEQ ID NO:1) Assay
Activity of Abl kinase (SEQ ID NO: 1) was determined by following the production of ADP from the kinase reaction through coupling with the pyruvate kinase/lactate dehydrogenase system (e.g., Schindler, et al. Science (2000) 289, 1938-1942). In this assay, the oxidation of NADH (thus the decrease at A340 nm) was continuously monitored spectrophometrically. The reaction mixture (100 μl) contained Abl kinase (1 nM. Abl from deCode Genetics), peptide substrate (EAIYAAPFAKKK, 0.2 mM), MgCl2 (10 mM), pyruvate kinase (4 units), lactate dehydrogenase (0.7 units), phosphoenol pyruvate (1 mM), and NADH (0.28 mM) in 90 mM Tris buffer containing 0.2% octyl-glucoside and 3.5% DMSO, pH 7.5. Test compounds were incubated with Abl (SEQ ID NO:1) and other reaction reagents at 30° C. for 2 h before ATP (500 μM) was added to start the reaction. The absorption at 340 nm was monitored continuously for 2 hours at 30° C. on Polarstar Optima plate reader (BMG). The reaction rate was calculated using the 1.0 to 2.0 h time frame. Percent inhibition was obtained by comparison of reaction rate with that of a control (i.e. with no test compound). IC50 values were calculated from a series of percent inhibition values determined at a range of inhibitor concentrations using software routines as implemented in the GraphPad Prism software package.

For assay [2], the target named is T2, C-Met kinase (SEQ ID NO:10) (Homo sapiens, UniProt P08581).
T2 construct: 956-1390, from Invitrogen, catalogue #PV3143; His6 (N-terminal leader MSYYHHHHHH... with TEV and thrombin sites) (N); purchased Invitrogen PV3143
T2 sequence (P08581 with tags, fused parts or gaps): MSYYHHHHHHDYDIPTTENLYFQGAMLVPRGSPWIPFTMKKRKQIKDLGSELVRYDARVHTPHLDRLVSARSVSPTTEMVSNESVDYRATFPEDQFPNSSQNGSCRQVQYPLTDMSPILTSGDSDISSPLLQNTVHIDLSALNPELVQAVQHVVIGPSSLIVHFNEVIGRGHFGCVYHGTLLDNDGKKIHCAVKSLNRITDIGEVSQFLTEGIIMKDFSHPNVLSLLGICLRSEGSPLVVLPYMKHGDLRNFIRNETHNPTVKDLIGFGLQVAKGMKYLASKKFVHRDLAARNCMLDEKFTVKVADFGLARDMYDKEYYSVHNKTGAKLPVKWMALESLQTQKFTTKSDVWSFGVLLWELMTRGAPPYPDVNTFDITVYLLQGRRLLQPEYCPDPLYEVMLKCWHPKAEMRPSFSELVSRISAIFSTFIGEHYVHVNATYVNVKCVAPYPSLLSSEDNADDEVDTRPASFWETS
As to the kind of experiment: C-Met kinase (SEQ ID NO:10) assay, pyruvate kinase/lactate dehydrogenase coupled. The conditions noted are these: 0.5 h preincubation, ATP 100 μM; read-out: Biochemical IC50, c-Met Enzyme Assay. The method, then:
C-Met Kinase (SEQ ID NO:10) Assay
Activity of C-Met kinase (SEQ ID NO:10) was determined by following the production of ADP from the kinase reaction through coupling with the pyruvate kinase/lactate dehydrogenase system (e.g., Schindler, et al. Science (2000) 289, 1938-1942). In this assay, the oxidation of NADH (thus the decrease at A340 nm) was continuously monitored spectrophometrically. The reaction mixture (100 μl) contained C-Met (c-Met residues; 956-1390, from Invitrogen, catalogue #PV3143, […]), polyE4Y (1 mg/ml), MgCl2 (10 mM), pyruvate kinase (4 units), lactate dehydrogenase (0.7 units), phosphoenol pyruvate (1 mM), and NADH (0.28 mM) in 90 mM Tris buffer containing 0.25 mM DTT, 0.2% octyl-glucoside and 1% DMSO, pH 7.5. Test compounds were incubated with C-Met (SEQ ID NO:10) and other reaction reagents at 22° C. for 0.5 h before ATP (100 μM) was added to start the reaction. The absorption at 340 nm was monitored continuously for 2 hours at 30° C. on Polarstar Optima plate reader (BMG). The reaction rate was calculated using the 1.0 to 2.0 h time frame. Percent inhibition was obtained by comparison of reaction rate with that of a control (i.e. with no test compound). IC50 values were calculated from a series of percent inhibition values determined at a range of inhibitor concentrations using software routines as implemented in the GraphPad Prism software package.

The target of assay [3] is T3, BaF3 cells transfected with T315I p210 BCR-Abl (Homo sapiens, UniProt P00519, T315I, cells depend on it).
T3 construct: fused on or other part: P11274 (Breakpoint cluster region protein)
Kind of assay: Ba/F3 p210 T315I whole cell proliferation assay. It is filed as cell-based. Particulars: 72 hours, Cell Titer Blue; read-out: Whole Cell Antiproliferation IC50, Ba/F3 p210 T315I whole cell proliferation assay. As to the method:
(§1) BaF3 cells (parental or transfected with the following: wild type p210 BCR-Abl and T315I p210 BCR-Abl was obtained from Professor Richard Van Etten (New England Medical Center, Boston, Mass.). Briefly, cells were grown in RPMI 1640 supplemented with 10% characterized fetal bovine serum (HyClone, Logan, Utah) at 37 degrees Celsius, 5% CO2, 95% humidity. Cells were allowed to expand until reaching 80% saturation at which point they were subcultured or harvested for assay use.
(§2) A serial dilution of test compound was dispensed into a 96 well black clear bottom plate (Corning, Corning, N.Y.). For each cell line, three thousand cells were added per well in complete growth medium. Plates were incubated for 72 hours at 37 degrees Celsius, 5% CO2, 95% humidity. At the end of the incubation period Cell Titer Blue (Promega, Madison, Wis.) was added to each well and an additional 4.5 hour incubation at 37 degrees Celsius, 5% CO2, 95% humidity was performed. Plates were then read on a BMG Fluostar Optima (BMG, Durham, N.C.) using an excitation of 544 nm and an emission of 612 nm. Data was analyzed using Prism software (Graphpad, San Diego, Calif.) to calculate IC50's.

In assay [4] the target is T4, BaF3 cells transfected with wild type p210 BCR-Abl (Homo sapiens, UniProt P00519).
T4 construct: fused on or other part: P11274 (Breakpoint cluster region protein)
As to the kind of experiment: Ba/F3 p210 whole cell proliferation assay. The format is cell-based. Particulars: 72 hours, Cell Titer Blue; read-out: Whole Cell Antiproliferation IC50, Ba/F3 p210 whole cell proliferation assay. The method, then: as §1, §2

In assay [5] the target is T5, T315I Abl kinase (SEQ ID NO:2) (Homo sapiens, UniProt P00519, T315I).
T5 construct: purchased deCode Genetics
T5 sequence (P00519 with tags, fused parts or gaps T315I): T1 sequence (P00519 with tags, fused parts or gaps) with T94I
As to the kind of experiment: T315I Abl kinase (SEQ ID NO:2) assay, pyruvate kinase/lactate dehydrogenase coupled. The conditions noted are these: 1 h preincubation, ATP 500 μM; read-out: Biochemical IC50, Abl T315I Enzyme Assay. The method, then:
Abl Kinase (SEQ ID NO:2) Assay
Activity of T315I Abl kinase (SEQ ID NO:2) was determined by following the production of ADP from the kinase reaction through coupling with the pyruvate kinase/lactate dehydrogenase system (e.g., Schindler, et al. Science (2000) 289, 1938-1942). In this assay, the oxidation of NADH (thus the decrease at A340 nm) was continuously monitored spectrophometrically. The reaction mixture (100 μl) contained Abl kinase (4.4 nM, […] Abl from deCode Genetics), peptide substrate (EAIYAAPFAKKK, 0.2 mM), MgCl2 (10 mM), pyruvate kinase (4 units), lactate dehydrogenase (0.7 units), phosphoenol pyruvate (1 mM), and NADH (0.28 mM) in 90 mM Tris buffer containing 0.2% octyl-glucoside and 1% DMSO, pH 7.5. Test compounds were incubated with T315I Abl (SEQ ID NO:2) and other reaction reagents at 30° C. for 1 h before ATP (500 μM) was added to start the reaction. The absorption at 340 nm was monitored continuously for 2 hours at 30° C. on Polarstar Optima plate reader (BMG). The reaction rate was calculated using the 1.0 to 2.0 h time frame. Percent inhibition was obtained by comparison of reaction rate with that of a control (i.e. with no test compound). IC50 values were calculated from a series of percent inhibition values determined at a range of inhibitor concentrations using software routines as implemented in the GraphPad Prism software package.

Residue numbers refer to the chain shown, from its start. Where only a bound is given, the exact number is not on record here.

With `CC(C)n1cc(NC(=O)Nc2ccc(Oc3ccnc(-c4cnn(C)c4)c3)cc2F)c(C(F)(F)F)n1` [Example 18, 1-(2-fluoro-4-(2-(1-methyl-1H-pyrazol-4-yl)pyridin-4-yloxy)phenyl)-3-(1-isopropyl-3-(trifluoromethyl)-1H-pyrazol-4-yl)urea], the half-maximal inhibitory concentration (IC50) was below 100 nM in assay [1] and below 10000 nM in assay [2]. The GI50 in assay [3] and in assay [4] was below 100 nM in each case.

Turning to “1-(3-cyclopentylisoxazol-5-yl)-3-(2-fluoro-4-(2-(1-methyl-1H-pyrazol-4-yl)pyridin-4-yloxy)phenyl)urea [Example 13]”, the IC50 in assay [1] was below 100 nM; in assay [2], below 1000 nM; in assay [5] it was below 10000 nM. Also, the GI50 in assay [3] and in assay [4] was below 100 nM each time.

For `Cn1cc(-c2cc(Oc3ccc(NC(=O)Nc4cc(C(C)(C)C)on4)c(F)c3)ccn2)cn1` [Example 4, 1-(5-t-butylisoxazol-3-yl)-3-(2-fluoro-4-(2-(1-methyl-1H-pyrazol-4-yl)pyridin-4-yloxy)phenyl)urea], the IC50 in assay [1] is below 100 nM; in assay [2], below 1000 nM; in assay [5] it was below 100 nM. The GI50 in assay [3] and in assay [4] was below 100 nM each time.

Turning to `Cc1c(NC(=O)Nc2ccc(Oc3ccnc(-c4cnn(C)c4)c3)cc2F)cnn1C(C)C` [Example 19, 1-(2-fluoro-4-(2-(1-methyl-1H-pyrazol-4-yl)pyridin-4-yloxy)phenyl)-3-(1-isopropyl-5-methyl-1H-pyrazol-4-yl)urea], the IC50 in assay [1] was below 1000 nM; in assay [2], below 10000 nM; in assay [5], below 1000 nM. Besides, the GI50 in assay [3] was below 10000 nM; in assay [4], below 100 nM.

In the case of `Cn1cc(-c2cc(Oc3ccc(NC(=O)Nc4ccn(C(C)(C)C)c4)c(F)c3)ccn2)cn1` [Example 30, 1-(1-tert-butyl-1H-pyrrol-3-yl)-3-(2-fluoro-4-(2-(1-methyl-1H-pyrazol-4-yl)pyridin-4-yloxy)phenyl)urea], the results for the IC50 in assay [1], in assay [2] and in assay [5] were below 100 nM, below 10000 nM and below 100 nM, respectively. Further, the GI50 in assay [3] was below 1000 nM; in assay [4] it was below 100 nM.

As to `Cc1c(Oc2ccnc(-c3cnn(C)c3)c2)ccc(NC(=O)Nc2cnn(C(C)(C)C)c2)c1F` [Example 17, 1-(1-tert-butyl-1H-pyrazol-4-yl)-3-(2-fluoro-3-methyl-4-(2-(1-methyl-1H-pyrazol-4-yl)pyridin-4-yloxy)phenyl)urea], the IC50 in assay [1] was below 100 nM; in assay [2], below 1000 nM; in assay [5], below 100 nM. In addition, the GI50 in assay [3] and in assay [4] was below 100 nM each time.

`Cn1cc(-c2cc(Oc3ccc(NC(=O)Nc4cc(C(F)(F)F)no4)c(F)c3)ccn2)cn1` [Example 7, 1-(2-fluoro-4-(2-(1-methyl-1H-pyrazol-4-yl)pyridin-4-yloxy)phenyl)-3-(3-(trifluoromethyl)isoxazol-5-yl)urea]: the IC50 was below 100 nM in assay [1], below 10000 nM in assay [2] and below 100 nM in assay [5]. Moreover, the GI50 is below 1000 nM in assay [3] and below 100 nM in assay [4].

Consider `Cn1cc(-c2cc(Oc3ccc(NC(=O)Nc4cc(C(F)(F)F)nn4C)c(F)c3)ccn2)cn1` [Example 16, 1-(2-fluoro-4-(2-(1-methyl-1H-pyrazol-4-yl)pyridin-4-yloxy)phenyl)-3-(1-methyl-3-(trifluoromethyl)-1H-pyrazol-5-yl)urea], for which the IC50 in assay [1] is below 100 nM; in assay [2] it was below 10000 nM; in assay [5], below 1000 nM. Further, the GI50 in assay [3] was below 1000 nM; in assay [4], below 100 nM.

Regarding `Cc1nn(C(C)C)cc1NC(=O)Nc1ccc(Oc2ccnc(-c3cnn(C)c3)c2)cc1F` [Example 20, 1-(2-fluoro-4-(2-(1-methyl-1H-pyrazol-4-yl)pyridin-4-yloxy)phenyl)-3-(1-isopropyl-3-methyl-1H-pyrazol-4-yl)urea], the results for the 50% inhibitory concentration (IC50) in assay [1], in assay [2] and in assay [5] were below 100 nM, below 10000 nM and below 100 nM, respectively. For the same compound, the GI50 is below 1000 nM in assay [3] and below 100 nM in assay [4].

For the compound “tert-butyl 4-(2-tert-butyl-5-(3-(2-fluoro-4-(2-(1-methyl-1H-pyrazol-4-yl)pyridin-4-yloxy)phenyl)ureido)pyrimidin-4-yl)piperazine-1-carboxylate [Example 40]”, the half-maximal inhibitory concentration (IC50) in assay [1] is below 100 nM; in assay [2] it was below 100000 nM; in assay [5], below 1000 nM. Also, the GI50 in assay [3] and in assay [4] was below 1000 nM in each case.
